In article PMC6736568, “Discovery of Novel Anti-cryptosporidial Activities From Natural Products by in vitro High-Throughput Phenotypic Screening” (Frontiers in Microbiology, 2019):
Counter-ions that a name gives are not always drawn. Like-named read-outs stand apart in the source and are kept apart here.

Assays:
Cryptosporidium parvum = test: qRT-PCR assay of the growth of C. parvum in vitro in HCT-8 host cells (primary and secondary screening, EC50); assay type: cell-based; conditions: Cryptosporidium parvum, HCT-8; for inhibition at 10 µM: primary screening at 10 uM, read-out: Inhibition (%); for inhibition at 3.3 µM: secondary screening at 3.3 uM, read-out: % Inhibition (3.3 uM)
[1] = primary screening at 10 uM, treated vs control

Structure (SMILES)	inhibition at 10 µM (Cryptosporidium parvum) [%]	cytotoxicity at 41 h, 10 µM (in vitro; human) [%]	Hs18S ΔCT (HCT-8 host cells (Hs18S); human, 41 h, 10 μM)	cytotoxicity at 10 µM (in vitro) [%]	Hs18S ΔCT (HCT-8 host cells (Hs18S); [1])	inhibition at 3.3 µM (Cryptosporidium parvum) [%]	cytotoxicity at 41 h, 10 µM (in vitro) [%]
CC(=O)Oc1ccc(O)cc1 [4-ACETOXYPHENOL]	-14.1	13.4	0.21				
C=CC(C1=CC(=O)C(OC)=CC1=O)c1ccccc1 (stereo not drawn) [4-METHOXYDALBERGIONE]	-28.5	-2.3	-0.03				
Cc1cc(=O)oc2c(O)c(O)ccc12 [4-METHYLDAPHNETIN]	-23.7	-16.6	-0.22				
Cc1cc(=O)oc2cc(O)c(O)cc12 [4-METHYLESCULETIN]	-3.64			0.7	0.01		
Cc1c[nH]cn1 [4-METHYLIMIDAZOLE]	-27.8			11.5	0.18		
CCCCCCCCCc1ccc(O)cc1 [4-NONYLPHENOL]	83.1			9.2	0.14	-181	
CC(C)CCC[C@@H](C)[C@H]1CC[C@H]2[C@@H]3CC(=O)[C@H]4C[C@@H](O)CC[C@]4(C)[C@H]3CC[C@]12C [5alpha-CHOLESTAN-3beta-OL-6-ONE]	-27.8				0.53		30.6
COc1cccc(-c2cc(=O)c3cc(OC)ccc3o2)c1 [6,3'-DIMETHOXYFLAVONE]	1.27	-5.6	-0.08				
O=c1cc(-c2ccccc2)oc2ccc(O)cc12 [6-HYDROXYFLAVONE]	40	5.6	0.08				
O=c1cc(-c2ccccc2)oc2c(O)c(O)ccc12 [7,8-DIHYDROXYFLAVONE]	49.3			28.8	0.49		
O=c1cc(-c2ccccc2)oc2cc(O)ccc12 [7-HYDROXYFLAVONE]	9.24			10.8	0.17		
COc1ccc2c(=O)ccoc2c1 [7-METHOXYCHROMONE]	-17.1	-26.1	-0.34				
CC(=O)O[C@H]1CC[C@@]2(C)C(=CC(=O)[C@H]3[C@@H]4CC[C@H]([C@H](C)CCCC(C)C)[C@@]4(C)CC[C@@H]32)C1 [7-OXOCHOLESTERYL ACETATE]	-24.9	-15.2	-0.20				
CC1(C)C(=O)[C@@H]2C[C@@]3(O)C4=CC(=O)O[C@@H](c5ccoc5)[C@]4(C)CC[C@@H]3[C@@](C)(C2=O)[C@H]1CC(=O)O [8-HYDROX[…]]	-11			63	1.43		
COC(=O)C[C@H]1C(C)(C)C2(O)OC34CC2C(=O)[C@]1(C)C3CC[C@]1(C)C4=CC(=O)O[C@H]1c1ccoc1 (stereo partly drawn) [8beta-HYDROXYCARAPIN, 3,8-HEMIACETAL]	89.7	11.8	0.18			64	
COc1cc2c(cc1OC)C1(O)C(=O)c3ccc(O)c(C(=O)O)c3OC1CO2 (stereo not drawn) [12a-HYDROXY-9-DEMETHYLMUNDUSERONE-8-CARBOXYLIC ACID]	0.54			4.1	0.06		
Cc1ccc2c(c1)CC[C@H]1CC(=O)CC[C@]21C [13-METHYL-4,4-BISNOR-8,11,13-PODOCARPATRIEN-3-ONE]	-31.4	-2	-0.03				
C/C1=C\CCC(=O)C2CC(C)(C)C2CC1 (stereo not drawn) [15-NORCARYOPHYLLEN-3-ONE]	-15.7	-3.6	-0.05				
CC(C)c1ccc2c(c1)CC[C@H]1[C@](C)(CN)CCC[C@]21C [18-AMINOABIETA-8,11,13-TRIENE SULFATE]	47.6	-13.9	-0.19				
CC(=O)OCC(=O)[C@H]1CC[C@H]2[C@@H]3CC=C4C[C@@H](O)CC[C@]4(C)[C@H]3CC[C@]12C [21-ACETOXYPREGNENOLONE]	-41.2	6.5	0.10				
CC(C)C1=CC2=CC[C@@H]3[C@](C)(CCC[C@@]3(C)C(=O)O)[C@H]2CC1 [ABIETIC ACID]	-58.3			-30.7	-0.39		
C[C@H]1O[C@H](O[C@H]2[C@H](O)[C@@H](O)[C@@H](O[C@H]3[C@H](O)[C@@H](O)C(O)O[C@@H]3CO)O[C@@H]2CO)[C@H](O)[C@@H](O)[C@@H]1N[C@H]1C=C(CO)[C@@H](O)[C@H](O)[C@H]1O (stereo partly drawn) [ACARBOSE]	37.8	23.6	0.39				
COc1cc(C(C)=O)cc(OC)c1O [ACETOSYRINGONE]	-26.9	-4	-0.06				
CC(=O)Oc1c2c(c(CC=C(C)C)c3c1C(=O)C1=C[C@@H]4CC5C(C)(C)OC(C/C=C(\C)C(=O)O)(C4=O)[C@@]15O3)OC(C)(CCC=C(C)C)C=C2 (stereo partly drawn) [ACETYL I[…]]	95.2			66.4	1.57	27	

Structure (SMILES)	inhibition at 10 µM (Cryptosporidium parvum) [%]	cytotoxicity at 41 h, 10 µM (in vitro; human) [%]	Hs18S ΔCT (HCT-8 host cells (Hs18S); human, 41 h, 10 μM)	cytotoxicity at 10 µM (in vitro) [%]	Hs18S ΔCT (HCT-8 host cells (Hs18S); [1])	inhibition at 3.3 µM (Cryptosporidium parvum) [%]	cytotoxicity at 41 h, 10 µM (in vitro) [%]
O=C(O)/C=C(\CC(=O)O)C(=O)O [ACONITIC ACID]	-3.59	-0.7	-0.01				
CCN1C[C@]2(COC)[C@H](O)C[C@H](OC)[C@@]34[C@@H]5C[C@@]6(O)[C@H](OC(=O)c7ccccc7)[C@@H]5[C@@](OC(C)=O)([C@@H]([C@H](OC)[C@H]23)[C@@H]14)[C@@H](O)[C@@H]6OC [ACONITINE]	2.84			-11.7	-0.16		
CC(=O)O[C@@H]1C[C@@]23C[C@@]24CC[C@H](O[C@@H]2OC[C@@H](O)[C@H](O)[C@H]2O)C(C)(C)[C@@H]4CC[C@H]3[C@]2(C)C[C@@H]3O[C@]4(C[C@@H](C)[C@@H]3[C@@]12C)O[C@H](O)[C@@]1(C)O[C@@H]41 [ACTEIN]	3.9				-0.41		-33.3
CCCCC[C@H](CC(=O)NO)C(=O)N[C@H](C(=O)N1CCC[C@H]1CO)C(C)C [ACTINONIN]	31.3	-4.6	-0.06				
Nc1ncnc2nc[nH]c12 [ADENINE]	-9.27	-5.9			-0.08		
Nc1ncnc2c1ncn2[C@@H]1O[C@H](COP(=O)(O)O)[C@@H](O)[C@H]1O [ADENOSINE PHOSPHATE]	23.5	-11.8	-0.16				
Nc1ncnc2c1ncn2[C@@H]1O[C@H](CO)[C@@H](O)[C@H]1O [ADENOSINE]	-13.4	1.5	0.02				
OC[C@@H](O)[C@@H](O)[C@@H](O)CO [ADONITOL]	6.19	16.4	0.26				
N=C(N)NCCCCN [AGMATINE SULFATE]	-2.93			13.5	0.21		
CC[C@H]1[C@@H]2C[C@H]3[C@@H]4N(C)c5ccccc5[C@]45C[C@@H]([C@H]2[C@H]5O)N3[C@@H]1O [AJMALINE]	-1.24			6.9	0.10		
O=C1c2ccccc2C(=O)c2c1ccc(O)c2O [ALIZARIN]	-42.4			-9.1	-0.13		
NC(=O)NC1NC(=O)NC1=O (stereo not drawn) [ALLANTOIN]	8.13	-16.1	-0.22				
CC(=O)[C@H]1CC[C@H]2[C@@H]3CC[C@H]4C[C@H](O)CC[C@]4(C)[C@H]3CC[C@]12C [ALLOPREGNANOLONE]	-52.5			1.3	0.02		
C=CCN=C=S [ALLYLISOTHIOCYANATE]	25.7	17.7	0.28				
O=C1c2c(O)cccc2C([C@@H]2O[C@H](CO)[C@@H](O)[C@H](O)[C@H]2O)c2cc(CO)cc(O)c21 (stereo partly drawn) [ALOIN]	-0.73	-54.3	-0.63				
C[C@@H]1[C@H](O)[C@@H](C)/C=C/C=C/C=C/C=C/C=C/C=C/C=C/[C@H](O[C@@H]2O[C@H](C)[C@@H](O)[C@H](N)[C@@H]2O)C[C@@H]2O[C@](O)(C[C@@H](O)C[C@@H](O)[C@H](O)CC[C@@H](O)C[C@@H](O)CC(=O)O[C@H]1C)C[C@H](O)[C@H]2C(=O)O [AMPHOTERICIN B]	-4.47	7.1	0.11				
N#C[C@H](O[C@@H]1O[C@H](CO[C@@H]2O[C@H](CO)[C@@H](O)[C@H](O)[C@H]2O)[C@@H](O)[C@H](O)[C@H]1O)c1ccccc1 [AMYGDALIN]	-15.6			4.8	0.07		
CN1CCCCC1c1ccc(-c2cccnc2)nc1 (stereo not drawn) [ANABASAMINE HYDROCHLORIDE]	8.75			24.3	0.40		
c1cncc([C@@H]2CCCCN2)c1 [ANABASINE HYDROCHLORIDE]	6.88			-5.5	-0.08		
C=C1CC[C@@H]2[C@](C)(CO)[C@H](O)CC[C@@]2(C)[C@@H]1C/C=C1/C(=O)OC[C@H]1O [ANDROGRAPHOLIDE]	38.8	5.3	0.08				
C/C=C/c1ccc(OC)cc1 [ANETHOLE]	-5.3	-5.8	-0.08				
COc1ccc([C@@H](C)C(=O)c2ccc(O)cc2O)cc1 [ANGOLENSIN (R)]	-26.9	-12.5	-0.17				
COc1ccc2c(=O)c(CC(=O)O)coc2c1 [ANHYDROBRAZILIC ACID]	11.9	-0.5	-0.01				
COc1cc(O)cc(OC)c1OC [ANTIAROL]	8.48	6.9	0.10				
